Measured values taken from ChEMBL document CHEMBL1201862, “PubChem BioAssay data set” (2004).
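Method: 48-hour compound exposure of cells in 96-well plates, five concentrations, linear interpolation of endpoints. GI50: concentration for 50% inhibition of growth.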 The source made the active and inactive calls. Rule as the data show it: active = GI50 up to about 1.1 µM and inactive = higher.

Experiments:
Assay in all cases: NCI tumour cell line growth inhibition, 48 h
PC-3 = tested on: PC-3
OVCAR-4 = tested on: OVCAR-4
HCT-116 = tested on: HCT-116
SR = tested on: SR
SF-295 = tested on: SF-295
DU-145 = tested on: DU-145
SF-268 = tested on: SF-268
EKVX = tested on: EKVX
SK-MEL-28 = tested on: SK-MEL-28
Malme-3M = tested on: Malme-3M
MDA-N = tested on: MDA-N
786-0 = tested on: 786-0
SK-MEL-5 = tested on: SK-MEL-5
UACC-62 = tested on: UACC-62
ACHN = tested on: ACHN
NCI-H23 = tested on: NCI-H23
HCC 2998 = tested on: HCC 2998
SF-539 = tested on: SF-539
MDA-MB-231 = tested on: MDA-MB-231

Measured: GI50

CN(C)CCN(/C(=N/c1ccccc1)N1CCCC1)c1ccccc1
inactive: PC-3 19.8 µM | OVCAR-4 49.5 µM | HCT-116 3.91 µM | SR 31.8 µM | SF-295 18.4 µM | DU-145 > 100 µM | SF-268 > 100 µM | EKVX > 100 µM | SK-MEL-28 > 100 µM | Malme-3M > 100 µM | MDA-N 4.1 µM | 786-0 > 10 µM | SK-MEL-5 30.2 µM | UACC-62 11.9 µM | ACHN > 100 µM | NCI-H23 31 µM

C=C1CCC2C(C)(CO)C(O)CCC2(C)C1C/C=C1/CCOC1=O (stereo not given)
inactive: HCC 2998 > 100 µM | SF-539 > 100 µM | OVCAR-4 > 100 µM | HCT-116 > 100 µM | SR > 100 µM | SF-295 > 100 µM | EKVX > 100 µM | Malme-3M > 100 µM | 786-0 > 100 µM | SK-MEL-5 > 100 µM | UACC-62 > 100 µM | ACHN > 100 µM | NCI-H23 > 100 µM

NC(=O)C12CCC1C1CCCCC12N1CCOCC1 (stereo not given)
inactive: HCC 2998 > 100 µM | SF-539 > 100 µM | OVCAR-4 > 100 µM | HCT-116 > 100 µM | SR > 100 µM | SF-295 > 100 µM | SF-268 > 100 µM | EKVX > 100 µM | SK-MEL-28 > 100 µM | Malme-3M > 100 µM | 786-0 > 100 µM | SK-MEL-5 > 100 µM | UACC-62 > 100 µM | ACHN > 100 µM | NCI-H23 > 100 µM

Oc1c(Cl)c(Cl)c(O)c(-c2cnc(-c3ncc(-c4c(O)c(Cl)c(Cl)c(O)c4Cl)s3)s2)c1Cl
inactive: HCC 2998 36.6 µM | SF-539 24.3 µM | PC-3 29.4 µM | OVCAR-4 80.5 µM | HCT-116 21.1 µM | SR 35.6 µM | SF-295 19.9 µM | DU-145 49.8 µM | SF-268 22 µM | EKVX 21.2 µM | MDA-MB-231 20.7 µM | SK-MEL-28 29.6 µM | Malme-3M 29.4 µM | 786-0 25.1 µM | SK-MEL-5 7.8 µM | UACC-62 19.7 µM | ACHN 23.3 µM | NCI-H23 19.3 µM

CCCCCCCCCCCCCCC(C)CCC(=O)O (stereo not given)
inactive: SF-539 48.9 µM | OVCAR-4 > 100 µM | HCT-116 36.8 µM | SF-295 > 100 µM | SF-268 > 100 µM | EKVX > 100 µM | SK-MEL-28 > 100 µM | Malme-3M > 100 µM | 786-0 80.9 µM | SK-MEL-5 > 100 µM | UACC-62 78.9 µM | ACHN > 100 µM | NCI-H23 > 100 µM

Nn1c(Nc2ccc(S(N)(=O)=O)cc2)nnc(/C=C/c2c(O)ccc3ccccc23)c1=O
inactive: HCC 2998 18.8 µM | SF-539 35.7 µM | PC-3 47.2 µM | OVCAR-4 15.3 µM | HCT-116 16.3 µM | SR 8.77 µM | SF-295 24.3 µM | DU-145 26.3 µM | SF-268 42.1 µM | EKVX 13.3 µM | SK-MEL-28 19.3 µM | Malme-3M 15.7 µM | MDA-N 16.3 µM | 786-0 24.4 µM | SK-MEL-5 14.5 µM | UACC-62 18.7 µM | ACHN 30.3 µM | NCI-H23 4.07 µM

O=C(O)CN(c1ccccc1)S(=O)(=O)c1cccc([N+](=O)[O-])c1
inactive: SF-539 > 100 µM | OVCAR-4 > 100 µM | SF-295 > 100 µM | SF-268 > 100 µM | EKVX > 100 µM | SK-MEL-28 > 100 µM | Malme-3M > 100 µM | 786-0 > 100 µM | SK-MEL-5 > 100 µM | UACC-62 > 100 µM | ACHN > 100 µM | NCI-H23 > 100 µM
